These results are taken from patent publication US12350250B2, “Aggrelytes for treating ocular conditions” (The Regents of the University of Colorado, a Body Corporate, priority 2022, dated 2025).

One assay concerns the target T1, αA-crystallin (αAC) (Homo sapiens, UniProt P02489).
T1 sequence (P02489 1-173): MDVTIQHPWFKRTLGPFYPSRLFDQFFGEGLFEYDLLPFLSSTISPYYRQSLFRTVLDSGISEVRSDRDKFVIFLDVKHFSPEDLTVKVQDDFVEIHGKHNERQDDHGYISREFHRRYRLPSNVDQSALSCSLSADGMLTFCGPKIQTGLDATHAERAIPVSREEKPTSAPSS
Briefly: Relative protein acetylation capability on recombinant αAC. It is filed as biochemical. To be noted: 500 μM acetylating agent, αAC 3 mg/mL, 24 hours, 37° C. The procedure: The relative ability of Aggrelyte-2 to acetylate lysine residues in proteins was investigated using αA-crystallin (αAC). Human recombinant αAC (3 mg/mL PBS) was incubated in 50 mM sodium phosphate buffer, pH 7.4, for 24 hours at 37° C. while shaking without or with 500 μM acetylating agent (Aggrelyte-2, acetyl-CoA, acetic anhydride, or aspirin), dialyzed against PBS for 24 hours at 4° C.

Assay [1] has as its system mouse lenses. Briefly: AcK-bearing proteins in WS fraction of treated mouse lenses (Western blot). Particulars: 1 mM, 24 hours, vs untreated controls (p<0.01) and Aggrelyte-2C (p<0.001). The protocol:
Mouse and human lenses were treated with aggrelytes as described in Example 10. Water-soluble proteins from mouse and human lenses were obtained as described in Example 13. Effects of aggrelyte treatment on AcK-bearing proteins in the WS fractions were evaluated by Western blot analysis as described in Example 5. For Western blotting, 10-20 μg of protein from each lens sample was used and each sample was separately processed three times and analyzed.
(In general: In western blotting, separated proteins are transferred to a membrane and probed.)

Assay [2] has as its system mouse lenses. The assay can be described thus: Stiffness of ex vivo mouse lenses (Example 18). Also on record: species or system mouse (C57BL/6J). To be noted: 1 mM, 24 hours, ex vivo mouse lenses (3-6 months old); not significant. The protocol:
In this example, the lenses were dissected from the eyes of mice (C57BL/6J, 3-6 months old, Jackson Laboratories, Stock No. 000664) by a posterior approach and incubated without (“Control”) or with Aggrelyte-2 or Aggrelyte-2A (1 mM) for 24 hours in serum-free and phenol-red-free MEM (297 mOsm) at 37° C. Lens stiffness was measured as in Example 10, except that the load was applied at 50 mg increments.

For another assay, the system named is human lenses. Briefly: Stiffness of ex vivo human lenses (Example 22). Particulars: 250 μM, 48 hours, ex vivo human lenses (47-67 years). The protocol: To test the effects of Aggrelyte-2 and Aggrelyte-2A on human lenses (age: 47-67 years), lenses were incubated in media containing freshly dissolved aggrelyte (250 μM) for 48 hours, with aggrelyte replacement after 24 hours. One lens from each donor pair was treated with aggrelyte, while the other was used as the control. After incubation, lens stiffness was measured, as described above in Example 20.

Each structure is given as a SMILES string.

With `COC(=O)[C@H](CSC(C)=O)NC(C)=O` [Aggrelyte-2, N,S-diacetyl-L-cysteine methyl ester], the “rank order of acetylating agents” value at αA-crystallin (αAC) was “followed by Aggrelyte-2, aspirin, and acetyl-CoA”. The “AcK modifications in WS proteins (Western blot)” value in the assay with mouse lenses [1] is recorded as “significantly higher AcK modifications”. The “reduction of lens stiffness” value in the assay on mouse lenses [2] is “approximately 20%”. In the assay with human lenses, the “effect on lens stiffness” value was “no effect on stiffness”.
